# Source: patent US20060148858A1, “1, 2-Azole derivatives with hypoglycemic and hypolipidemic activity” (priority 2002, published 2006)
# Read-outs that look alike come from different tables or passages of the source.
# Key:
# KKAY mice [1] = assay: Hypoglycemic and hypolipidemic actions in mice (Test Example 1); format: in vivo; conditions: Mus musculus, po, 96 h, 0.005% in powdery diet, four days, non-treated group taken as 100%
# How it was run: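 KKAY mice (9 to 12 weeks old, 5 per group) were fed diet containing 0.005% test compound ad libitum for four days. Plasma glucose and triglycerides from orbital venous blood were measured enzymatically, reported as % decrease relative to untreated group (100%).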
# KKAY mice [2] = assay: Plasma anti-arteriosclerosis index-enhancing action in mice (Test Example 2); format: in vivo; conditions: Mus musculus, po, 96 h, 0.005% in powdery diet, four days, percent increase of (HDL cholesterol/total cholesterol)x100, non-treatment group taken as 100%
# Protocol: Test compounds were mixed in a powdery diet (CE-2, Japan Clea) at the concentration of 0.005%, and freely given to KKAY mice (9 to 12 weeks old, 5 mice per group), a model of obese and non-insulin dependent diabetes (type 2 diabetes), for four days. During this period, water was given freely. Blood was sampled from orbital venous plexus and components in plasma separated from blood were determined. Total cholesterol levels were determined by using L type Wako Cholesterol (Wako Pure Chemical Industries, Ltd.). Precipitation reagent for HDL cholesterol (Wako Pure Chemical Industries, Ltd.) was added to a part of the plasma to precipitate non-HDL lipoprotein, and cholesterol (HDL cholesterol) in the resulting supernatant was determined. The plasma anti-arteriosclerosis index [(HDL cholesterol/total cholesterol)×100] was calculated by using these cholesterol levels.
# In the Table, “Plasma anti-arteriosclerosis index-enhancing action (%)” represents the percent increase (%) of plasma anti-arteriosclerosis index in the treatment group, when the plasma anti-arteriosclerosis index in the non-treatment group is taken as 100%.
# PPARγ-RXRα heterodimer = target: T1, PPARγ-RXRα heterodimer (Homo sapiens, UniProt P37231); assay: PPARγ-RXRα heterodimer ligand activity, luciferase reporter in PPARγ:RXRα:4ERPP/CHO-K1 cells (Test Example 3); format: cell-based; conditions: 18-48 hours, concentration for 50% of the maximum fold induction
# T1 construct: expressed in transfected cells; host or cells: CHO-K1
# T1 sequence (P37231 1-477 isoform P37231-2): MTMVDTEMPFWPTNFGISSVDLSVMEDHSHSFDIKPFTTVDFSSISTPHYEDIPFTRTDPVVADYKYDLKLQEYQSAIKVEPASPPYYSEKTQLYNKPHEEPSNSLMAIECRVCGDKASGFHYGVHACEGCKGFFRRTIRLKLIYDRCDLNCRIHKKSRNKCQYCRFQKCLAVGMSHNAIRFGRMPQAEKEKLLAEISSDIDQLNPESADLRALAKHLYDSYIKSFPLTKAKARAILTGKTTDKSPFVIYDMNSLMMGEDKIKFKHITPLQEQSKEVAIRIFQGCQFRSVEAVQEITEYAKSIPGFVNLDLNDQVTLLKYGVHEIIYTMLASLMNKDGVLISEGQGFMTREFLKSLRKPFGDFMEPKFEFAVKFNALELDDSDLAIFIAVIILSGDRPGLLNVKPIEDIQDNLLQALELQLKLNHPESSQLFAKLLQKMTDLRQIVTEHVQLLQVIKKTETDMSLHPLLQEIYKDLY
# T1 sequence (P19793 1-462 partner): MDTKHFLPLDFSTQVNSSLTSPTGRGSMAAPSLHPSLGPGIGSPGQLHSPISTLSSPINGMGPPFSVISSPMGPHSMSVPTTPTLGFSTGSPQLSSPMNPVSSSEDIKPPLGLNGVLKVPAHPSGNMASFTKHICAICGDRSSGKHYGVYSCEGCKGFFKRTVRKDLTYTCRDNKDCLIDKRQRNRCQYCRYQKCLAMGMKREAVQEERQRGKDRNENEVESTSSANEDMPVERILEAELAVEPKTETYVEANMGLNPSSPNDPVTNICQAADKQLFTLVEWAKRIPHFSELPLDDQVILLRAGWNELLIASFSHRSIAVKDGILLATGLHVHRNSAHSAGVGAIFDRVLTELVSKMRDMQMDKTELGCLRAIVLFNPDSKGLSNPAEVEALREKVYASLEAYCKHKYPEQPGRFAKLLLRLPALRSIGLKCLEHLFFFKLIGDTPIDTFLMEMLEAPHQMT
# How it was run: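 Stable CHO-K1 line co-expressing hPPARγ/RXR with 4ERPP-TK luciferase reporter, 2×10^4 cells per well, treated 18-48 h at 37° C. in HAM F12 with 0.1% fatty acid-free BSA. Luciferase fold induction versus untreated taken as 1; EC50 is concentration giving 50% of maximal fold induction.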
# [3] = rate of decrease in blood glucose level, read-out: Hypoglycemic action (%)
# [4] = rate of decrease in blood triglyceride level, read-out: Hypolipidemic action (%)
structure (smiles),measurement,setting,value
"CCCc1nn(-c2ccc(C(F)(F)F)cn2)cc1CCCOc1c(CC(=O)O)cccc1OC [Example 259, [3-methoxy-2-(3-{3-propyl-1-[5-(trifluoromethyl)-2-pyridyl]-1H-pyrazol-4-yl}propoxy)phenyl]acetic acid]",inhibition in vivo at 0.005 % in diet,KKAY mice [1]; [3],34%
same,inhibition in vivo at 0.005 % in diet,KKAY mice [1]; [4],70%
same,change in vivo at 0.005 % in diet,KKAY mice [2],25%
same,EC50,PPARγ-RXRα heterodimer,76 nM
same,melting point,,122 to 123 °C
"CCOc1nn(-c2ccc(C(F)(F)F)cn2)cc1CCCOc1cccc(OC(C)(C)C(=O)O)c1 [Example 29, 2-[3-(3-{3-ethoxy-1-[5-(trifluoromethyl)-2-pyridyl]-1H-pyrazol-4-yl}propoxy)phenoxy]-2-methylpropionic acid]",inhibition in vivo at 0.005 % in diet,KKAY mice [1]; [3],46%
same,inhibition in vivo at 0.005 % in diet,KKAY mice [1]; [4],65%
same,change in vivo at 0.005 % in diet,KKAY mice [2],23%
same,EC50,PPARγ-RXRα heterodimer,160 nM
same,melting point,,120 to 121 °C
